In US8513242B2, “Pyrimidine compounds and methods of making and using same” (Cystic Fibrosis Foundation Therapeutics, Inc., priority 2008, dated 2013):

Tests used:
ΔF508 CFTR [1] = target: T1, ΔF508 CFTR (Homo sapiens, UniProt P13569, DEL508-508); test: Dual corrector potentiator assay, potentiator mode: FRT cell Ussing chamber short circuit current, compound added to mucosal solution; type: cell-based; conditions: for Potentiator Efficacy: ΔI(forskolin+compound)/ΔI(forskolin+IBMX+genistein)
T1 construct: expressed in transfected cells; host or cells: FRT epithelial cells (Fischer rat thyroid)
T1 sequence (P13569 with tags, fused parts or gaps DEL508-508): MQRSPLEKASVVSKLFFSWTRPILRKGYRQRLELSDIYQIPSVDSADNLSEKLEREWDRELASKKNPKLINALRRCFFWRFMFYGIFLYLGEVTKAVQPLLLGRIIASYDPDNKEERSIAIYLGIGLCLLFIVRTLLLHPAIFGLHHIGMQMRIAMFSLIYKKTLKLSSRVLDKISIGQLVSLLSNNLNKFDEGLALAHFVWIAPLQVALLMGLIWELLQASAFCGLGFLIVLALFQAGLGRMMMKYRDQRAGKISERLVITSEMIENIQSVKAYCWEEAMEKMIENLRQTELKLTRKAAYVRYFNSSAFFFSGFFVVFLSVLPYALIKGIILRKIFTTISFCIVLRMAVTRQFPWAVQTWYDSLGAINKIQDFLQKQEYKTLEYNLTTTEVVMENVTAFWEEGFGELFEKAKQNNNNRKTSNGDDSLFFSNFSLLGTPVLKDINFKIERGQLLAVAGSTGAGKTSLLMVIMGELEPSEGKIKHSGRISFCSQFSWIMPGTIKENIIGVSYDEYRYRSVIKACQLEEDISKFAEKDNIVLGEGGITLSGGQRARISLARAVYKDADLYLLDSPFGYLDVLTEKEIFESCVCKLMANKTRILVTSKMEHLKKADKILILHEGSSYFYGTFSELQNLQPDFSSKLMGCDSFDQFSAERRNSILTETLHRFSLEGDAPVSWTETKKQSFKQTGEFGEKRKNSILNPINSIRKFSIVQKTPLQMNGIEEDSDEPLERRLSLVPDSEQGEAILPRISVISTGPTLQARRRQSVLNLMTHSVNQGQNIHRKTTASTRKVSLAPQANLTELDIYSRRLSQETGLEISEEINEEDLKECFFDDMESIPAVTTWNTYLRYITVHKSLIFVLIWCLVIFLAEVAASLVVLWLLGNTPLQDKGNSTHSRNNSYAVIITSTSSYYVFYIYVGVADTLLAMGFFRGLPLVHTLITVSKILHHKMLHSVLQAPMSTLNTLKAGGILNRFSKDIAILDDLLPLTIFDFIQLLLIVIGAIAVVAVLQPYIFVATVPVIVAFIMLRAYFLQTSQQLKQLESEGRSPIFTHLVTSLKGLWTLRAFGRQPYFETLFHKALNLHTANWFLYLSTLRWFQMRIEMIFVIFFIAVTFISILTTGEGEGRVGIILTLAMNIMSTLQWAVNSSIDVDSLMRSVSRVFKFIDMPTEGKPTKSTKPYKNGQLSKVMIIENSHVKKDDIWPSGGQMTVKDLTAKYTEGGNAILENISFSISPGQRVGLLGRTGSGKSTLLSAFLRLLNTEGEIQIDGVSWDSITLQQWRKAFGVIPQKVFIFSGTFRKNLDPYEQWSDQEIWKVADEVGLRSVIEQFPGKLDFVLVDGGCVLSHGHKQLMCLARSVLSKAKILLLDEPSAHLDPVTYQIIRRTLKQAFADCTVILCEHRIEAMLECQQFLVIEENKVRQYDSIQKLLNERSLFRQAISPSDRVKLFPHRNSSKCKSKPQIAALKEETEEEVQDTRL
Method: (§1) FRT epithelial cell monolayers were grown on Snapwell filter inserts and optionally treated with a reference corrector N-(2-(5-chloro-2-methoxyphenylamino)-4′-methyl-4,5′-bithiazol-2′-yl)benzamide. The cells were exposed to a compound of the invention for 24 hours prior to the assay. The inserts were transferred to a Navicyte Ussing recording chamber and superfused with a HEPES buffered physiological saline (HB-PS) with composition (in mM): NaCl, 137; KCl, 4.0; CaCl2, 1.8; MgCl2, 1; HEPES, 10; Glucose, 10; pH adjusted to 7.4 with NaOH. The mucosal solution was 10CF-PS (composition in mM: Na-gluconate, 137; KCl, 4; CaCl2, 1.8; MgCl2, 1; HEPES, 10; Mannitol, 10; pH adjusted to 7.4 with N-methyl-D-glucamine) to create a transepithelial Cl ion gradient. A Physiologic Instruments VCC MC6 epithelial voltage clamp (Physiologic Instruments, Inc., San Diego, Calif.) was used to record the short circuit current (ISC).
(§2) Inserts were voltage clamped at 0 mV to measure the ISC. 10CF-PS solution (5 ml) was added to the mucosal (top) side of the Snapwell filter and HB-PS solution (5 mL) was added to the serosal (bottom) side of the Snapwell filter insert to permeabilize the serosal membrane. Solution additions and replacements in the Navicyte chambers were performed in a way to maintain a hydrostatic pressure gradient from mucosal to serosal sides of the filters by maintaining a solution level greater or equal in the mucosal chamber relative to the serosal chamber during solution changes. After acquisition of at least 10 minutes of baseline current, agonists (final concentrations: 10 μM forskolin, 100 μM 3-isobutyl-1-methylxanthine [IBMX] and 20 μM genistein) and antagonist (final concentration: 10 μM CFTRinh-172) were applied sequentially and cumulatively at 10 minute intervals for forskolin and IBMX, and at 15 minute intervals for genistein and CFTRinh-172, to both serosal and mucosal epithelial surfaces.
(§3) Agonists were prepared as 200×-1000× concentrated solutions in HP-PS and 10CF-PS. Agonist stocks prepared in HB-PS were added to the serosal surface, while agonist stocks prepared in 10CF-PS were added to the mucosal surface. In potentiator assays, appropriate volumes from 10 mM test compound solution in DMSO were added to the mucosal 10CF-PS solution. Agonists were diluted to the final working concentration in the Navicyte chamber by removal of chamber solution and addition of the concentrated stock solution. Order of solution removal was serosal then mucosal and for solution additions mucosal then serosal in order to maintain a hydrostatic pressure gradient from mucosal to serosal during solution changes. Transepithelial resistance was monitored every 20 s with 10 mV voltage steps.
(§4) EC50 values are defined as the concentration of compound that gives a >25% increase in whole cell Cl^− conductance (compared to DMSO at 37° C. as a vehicle) at 10 μM. The corrector efficacy was measured as a percentage change in agonist+compound vs. agonist: ΔIcompound(forskolin+IBMX+genistein)/ΔIvehicle(forskolin+IBMX+genistein). The potentiator efficacy was measured as a percentage change in forskolin activity: ΔI(forskolin+compound)/ΔI(forskolin+IBMX+genistein).

ΔF508 CFTR [2] = target: T1, ΔF508 CFTR; test: Dual corrector potentiator assay, corrector mode: FRT cell Ussing chamber short circuit current after 24 hours exposure to compound; type: cell-based; conditions: for EC50: FRT cell monolayers, 24 hours exposure, EC50 defined as concentration giving >25% increase in whole cell Cl− conductance vs DMSO at 37° C.; for Corrector Efficacy: ΔIcompound(forskolin+IBMX+genistein)/ΔIvehicle(forskolin+IBMX+genistein)
Method: as §1, §2, §3, §4

[3] = ** cells treated with reference corrector N-(2-(5-chloro-2-methoxyphenylamino)-4′-methyl-4,5′-bithiazol-2′-yl)benzamide
[4] = pretreatment of cells not given

SMILES	EC50 (ΔF508 CFTR [1]; * vehicle treated cells) [µM]	Potentiator Efficacy (ΔF508 CFTR [1]; * vehicle treated cells)	EC50 (ΔF508 CFTR [1]; [3]) [µM]	Potentiator Efficacy (ΔF508 CFTR [1]; [3])	EC50 (ΔF508 CFTR [2]) [µM]	Corrector Efficacy (ΔF508 CFTR [2])	EC50 (ΔF508 CFTR [1]; [4]) [µM]	Potentiator Efficacy (ΔF508 CFTR [1]; [4])
C[C@H]1CC[C@@H](Nc2ncc(-c3ccc(OC(F)(F)F)cc3)cn2)CC1 [Example 4, N-((1S,4S)-4-Methylcyclohexyl)-5-(4-(trifluoromethoxy)phenyl)pyrimidin-2-amine]	< 3	+++* (+++=>0.6)	< 3	+++** (+++=>0.6)	< 10	+++ (+++=>3)	–	–
COc1nc(N[C@H]2CC[C@@H](C)CC2)ncc1-c1ccc(OC(C)C)cc1 [Example 7, 5-(4-Isopropoxyphenyl)-4-methoxy-N-((1S,4S)-4-methylcyclohexyl)pyrimidin-2-amine]	–	–	< 10	++** (++=0.3-0.6)	< 10	+++ (+++=>3)	–	–
C[C@H]1CC[C@@H](Nc2ncc(-c3ccc(OC(F)F)cc3)cn2)CC1 [Example 19, 5-(4-(difluoromethoxy)phenyl)-N-((1s,4s)-4-methylcyclohexyl)pyrimidin-2-amine]	–	–	< 3	+++** (+++=>0.6)	< 10	+++ (+++=>3)	–	–
CC(C)Oc1ccc(-c2cnc(N[C@H]3CC[C@@H](C)CC3)nc2)cc1 [Example 23, 5-(4-isopropoxyphenyl)-N-((1s,4s)-4-methylcyclohexyl)pyrimidin-2-amine]	–	–	< 3	+++** (+++=>0.6)	< 10	+++ (+++=>3)	–	–
COc1ccc(-c2cnc(N[C@H]3CC[C@@H](C)CC3)nc2)cc1 [Example 27, 5-(4-methoxyphenyl)-N-((1s,4s)-4-methylcyclohexyl)pyrimidin-2-amine]	–	–	< 3	++** (++=0.3-0.6)	< 10	+++ (+++=>3)	–	–
COc1nc(N[C@H]2CC[C@@H](C)CC2)ncc1-c1ccc(OC(F)(F)F)cc1 [Example 58, 4-methoxy-N-((1s,4s)-4-methylcyclohexyl)-5-(4-(trifluoromethoxy)phenyl)pyrimidin-2-amine]	–	–	< 3	+++** (+++=>0.6)	< 10	+++ (+++=>3)	–	–
COc1nc(N[C@H]2CC[C@@H](C)CC2)ncc1-c1ccc(OC(F)F)cc1 [Example 59, 5-(4-(difluoromethoxy)phenyl)-4-methoxy-N-((1s,4s)-4-methylcyclohexyl)pyrimidin-2-amine]	–	–	< 3	++** (++=0.3-0.6)	< 10	+++ (+++=>3)	–	–
COc1nc(N[C@H]2CC[C@@H](C)CC2)ncc1-c1ccc(OC(C)C)cc1 [Example 102, 5-(4-isopropoxyphenyl)-4-methoxy-N-((1s,4s)-4-methylcyclohexyl)pyrimidin-2-amine]	–	–	–	–	–	–	< 3	++ (++=0.3-0.6)
COc1nc(N[C@H]2CC[C@@H](C)CC2)ncc1-c1ccc(OC(F)(F)F)cc1 [Example 103, 4-methoxy-N-((1s,4s)-4-methylcyclohexyl)-5-(4-(trifluoromethoxy)phenyl)pyrimidin-2-amine]	–	–	–	–	–	–	< 3	++ (++=0.3-0.6)
COc1nc(N[C@H]2CC[C@@H](C)CC2)ncc1-c1ccc(OC(F)F)cc1 [Example 104, 5-(4-(difluoromethoxy)phenyl)-4-methoxy-N-((1s,4s)-4-methylcyclohexyl)pyrimidin-2-amine]	–	–	–	–	–	–	< 3	++ (++=0.3-0.6)
COc1nc(N[C@H]2CC[C@@H](C)CC2)ncc1-c1ccc(OC(C)C)nc1 [Example 118, 5-(6-isopropoxypyridin-3-yl)-4-methoxy-N-((1s,4s)-4-methylcyclohexyl)pyrimidin-2-amine]	–	–	–	–	< 10	+++ (+++=>3)	–	–
COc1nc(N[C@H]2CC[C@@H](C)CC2)ncc1-c1ccc(N2CCCCC2)nc1 [Example 119, 4-methoxy-N-((1s,4s)-4-methylcyclohexyl)-5-(6-(piperidin-1-yl)pyridin-3-yl)pyrimidin-2-amine]	–	–	–	–	< 10	+++ (+++=>3)	–	–
COc1nc(N[C@H]2CC[C@@H](C)CC2)ncc1-c1ccc(OCC#N)cc1 [Example 125, 2-(4-(4-methoxy-2-((1s,4s)-4-methylcyclohexylamino)pyrimidin-5-yl)phenoxy)acetonitrile]	–	–	–	–	> 20	+++ (+++=>3)	–	–
C[C@H]1CC[C@@H](Nc2ncc(-c3ccc(OCC#N)cc3)c(OCC3CC3)n2)CC1 [Example 133, 2-(4-(4-(cyclopropylmethoxy)-2-((1s,4s)-4-methylcyclohexylamino)pyrimidin-5-yl)phenoxy)acetonitrile]	–	–	–	–	> 20	+++ (+++=>3)	–	–
COc1nc(N[C@H]2CC[C@@H](C)CC2)ncc1-c1ccnc(C#N)c1 [Example 143, 4-(4-methoxy-2-((1s,4s)-4-methylcyclohexylamino)pyrimidin-5-yl)picolinonitrile]	–	–	–	–	–	–	< 3	++ (++=0.3-0.6)
C[C@H]1CC[C@@H](Nc2ncc(-c3ccc(OCC#N)cc3)c(OC3CCOC3)n2)CC1 (some centres unmarked) [Example 150, 2-(4-(2-((1s,4s)-4-methylcyclohexylamino)-4-(tetrahydrofuran-3-yloxy)pyrimidin-5-yl)phenoxy)acetonitrile]	–	–	–	–	> 10	+++ (+++=>3)	–	–
C[C@H]1CC[C@@H](Nc2ncc(-c3ccc4c(c3)OCCO4)c(O[C@@H]3CCOC3)n2)CC1 [Example 201, 5-(2,3-dihydrobenzo[b][1,4]dioxin-6-yl)-N-((1s,4S)-4-methylcyclohexyl)-4-((R)-tetrahydrofuran-3-yloxy)pyrimidin-2-amine]	–	–	–	–	~10	+++ (+++=>3)	–	–
